Results from publication PMC11123841, “Discovery and Synthesis of Hydroxy-L-Proline Blockers of the Neutral Amino Acid Transporters SLC1A4 (ASCT1) and SLC1A5 (ASCT2)” (Molecules, 2024).

How the values were obtained:
SLC38A2 (ATA2) = target: T1, SLC38A2 (ATA2) (Homo sapiens, UniProt Q96QD8); assay: TEVC electrogenic coupled currents in oocytes; assay type: cell-based; conditions: induced currents
T1 construct: expressed in transfected cells; host or cells: Xenopus laevis oocytes (cRNA injection)
T1 sequence (Q96QD8 1-506): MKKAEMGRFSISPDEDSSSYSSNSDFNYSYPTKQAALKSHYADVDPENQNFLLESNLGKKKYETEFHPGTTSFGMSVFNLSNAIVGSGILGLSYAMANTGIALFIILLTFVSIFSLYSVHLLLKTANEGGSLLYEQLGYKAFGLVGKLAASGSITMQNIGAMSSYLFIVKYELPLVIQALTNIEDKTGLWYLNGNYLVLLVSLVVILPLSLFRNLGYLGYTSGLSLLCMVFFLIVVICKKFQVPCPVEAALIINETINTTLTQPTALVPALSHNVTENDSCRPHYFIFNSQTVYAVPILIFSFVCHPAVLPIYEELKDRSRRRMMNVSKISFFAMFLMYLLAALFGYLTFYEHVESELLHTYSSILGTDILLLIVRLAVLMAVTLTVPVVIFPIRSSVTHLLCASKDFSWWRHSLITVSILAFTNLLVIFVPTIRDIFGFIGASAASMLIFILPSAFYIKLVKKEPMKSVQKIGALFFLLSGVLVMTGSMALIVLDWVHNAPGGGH
Protocol: (§1) Additionally, 4-HP applied at 1 mM was used to assess activity at the glutamate transporters SLC1A3 or SLC1A1.
(§2) BPOHP activity was evaluated against the glutamate transporters paralogs within the SLC1A gene family (SLC1A 1–3) as well as at neutral amino acid transporters that share common ligand substrates with the SLC1 family including SLC38A1,2, and 4 (ATA1, ATA2, ATA3) and heteromeric transporters SLC7A10+SLC3A2 (asc-1/4f2).
(§3) Uptake was halted by washing 3 times with 4 °C ND96 buffer. Oocytes were then lysed in 0.1% Triton X-100, and radioactivity was counted via liquid scintillation. Dose response curves were generated by fitting fractional inhibition (I) to the expression I = Imax × [inhibitor]/([inhibitor] + IC50).
Two-electrode voltage clamp (TEVC) transporter currents were recorded with a GeneClamp 500 amplifier and Digidata 1320A analog–digital interface (Molecular Devices, San Jose, CA, USA). […] Data were acquired with Axograph (v1.7.6) and LabChart (v7) and analyzed with Kaleidagraph software (v4.1) (Synergy, Reading, PA, USA). Uncoupled anion currents associated with the transport of substrate and block of SLC1A4 or SLC1A5 mediated leak conductance were recorded in the presence of Ringer with 50% substitution of NaCl by NaSCN to amplify the non-transported anion conductance. […]

SLC1A5 = target: T2, SLC1A5 (Mus musculus, UniProt P51912); assay: [3H]L-Gln radiolabeled uptake competition in oocytes; assay type: cell-based
T2 construct: expressed in transfected cells; host or cells: Xenopus laevis oocytes (cRNA injection)
T2 sequence (P51912 1-553): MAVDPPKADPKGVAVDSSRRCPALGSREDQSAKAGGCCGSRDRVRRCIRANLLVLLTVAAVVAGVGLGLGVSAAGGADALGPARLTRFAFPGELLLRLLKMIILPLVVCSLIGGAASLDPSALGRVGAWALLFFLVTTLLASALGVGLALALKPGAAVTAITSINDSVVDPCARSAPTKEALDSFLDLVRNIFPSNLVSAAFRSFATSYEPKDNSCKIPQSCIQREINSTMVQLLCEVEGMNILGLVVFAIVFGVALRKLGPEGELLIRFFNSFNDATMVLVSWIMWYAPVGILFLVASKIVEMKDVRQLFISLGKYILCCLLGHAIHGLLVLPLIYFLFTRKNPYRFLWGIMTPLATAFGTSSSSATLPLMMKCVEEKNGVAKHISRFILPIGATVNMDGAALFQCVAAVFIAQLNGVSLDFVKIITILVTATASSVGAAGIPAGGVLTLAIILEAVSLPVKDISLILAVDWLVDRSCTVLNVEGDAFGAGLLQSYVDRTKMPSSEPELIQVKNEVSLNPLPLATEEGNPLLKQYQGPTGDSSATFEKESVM
Protocol: as §3
(A) SLC1A4 dose response curves for substrate activated anion currents using two-electrode voltage clamp of Xenopus lavies oocytes (−30 mV). […] (B) SLC1A5 dose response curve for substrate activated anion currents using two-electrode voltage clamp (−30 mV). […] Extracellular solutions contained 50 mM NaSCN.

SLC1A1 (EAAT3) = target: T3, SLC1A1 (EAAT3) (Homo sapiens, UniProt P43005); assay: TEVC in oocytes expressing glutamate transporter; assay type: cell-based; conditions: SLC1A1; applied at 1 mM
T3 construct: expressed in transfected cells; host or cells: Xenopus laevis oocytes (cRNA injection)
T3 sequence (P43005 1-524): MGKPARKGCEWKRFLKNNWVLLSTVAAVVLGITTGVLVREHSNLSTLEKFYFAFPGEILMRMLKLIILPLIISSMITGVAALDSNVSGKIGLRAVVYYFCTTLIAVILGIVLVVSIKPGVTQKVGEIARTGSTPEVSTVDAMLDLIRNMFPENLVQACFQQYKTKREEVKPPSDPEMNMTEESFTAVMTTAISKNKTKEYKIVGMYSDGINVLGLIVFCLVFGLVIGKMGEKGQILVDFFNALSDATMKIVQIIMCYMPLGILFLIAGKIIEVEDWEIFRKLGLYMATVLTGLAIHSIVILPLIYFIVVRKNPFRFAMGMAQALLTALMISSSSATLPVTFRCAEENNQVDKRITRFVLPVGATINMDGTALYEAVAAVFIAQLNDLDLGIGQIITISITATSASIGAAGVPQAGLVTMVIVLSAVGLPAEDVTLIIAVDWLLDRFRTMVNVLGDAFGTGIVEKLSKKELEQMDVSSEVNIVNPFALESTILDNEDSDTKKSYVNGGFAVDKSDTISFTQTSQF
Protocol: as §1, §2, §3
(§4) Two-electrode voltage clamp (TEVC) transporter currents were recorded with a GeneClamp 500 amplifier and Digidata 1320A analog–digital interface (Molecular Devices, San Jose, CA, USA). Electrodes (0.2–1.0 MΩ) were filled with 3M KCl and the recording chamber was grounded with an agar bridge. Data were acquired with Axograph (v1.7.6) and LabChart (v7) and analyzed with Kaleidagraph software (v4.1) (Synergy, Reading, PA, USA). Uncoupled anion currents associated with the transport of substrate and block of SLC1A4 or SLC1A5 mediated leak conductance were recorded in the presence of Ringer with 50% substitution of NaCl by NaSCN to amplify the non-transported anion conductance.
(§5) Figure SM-2 TEVC from oocytes expressing SLC1A1-3 transporters.
(§6) (1 picture or pasted object on this page, not shown here)

SLC1A3 (EAAT1) = target: T4, SLC1A3 (EAAT1) (Homo sapiens, UniProt P43003); assay: TEVC in oocytes expressing glutamate transporter; assay type: cell-based; conditions: SLC1A3; applied at 1 mM
T4 construct: expressed in transfected cells; host or cells: Xenopus laevis oocytes (cRNA injection)
T4 sequence (P43003 whole entry): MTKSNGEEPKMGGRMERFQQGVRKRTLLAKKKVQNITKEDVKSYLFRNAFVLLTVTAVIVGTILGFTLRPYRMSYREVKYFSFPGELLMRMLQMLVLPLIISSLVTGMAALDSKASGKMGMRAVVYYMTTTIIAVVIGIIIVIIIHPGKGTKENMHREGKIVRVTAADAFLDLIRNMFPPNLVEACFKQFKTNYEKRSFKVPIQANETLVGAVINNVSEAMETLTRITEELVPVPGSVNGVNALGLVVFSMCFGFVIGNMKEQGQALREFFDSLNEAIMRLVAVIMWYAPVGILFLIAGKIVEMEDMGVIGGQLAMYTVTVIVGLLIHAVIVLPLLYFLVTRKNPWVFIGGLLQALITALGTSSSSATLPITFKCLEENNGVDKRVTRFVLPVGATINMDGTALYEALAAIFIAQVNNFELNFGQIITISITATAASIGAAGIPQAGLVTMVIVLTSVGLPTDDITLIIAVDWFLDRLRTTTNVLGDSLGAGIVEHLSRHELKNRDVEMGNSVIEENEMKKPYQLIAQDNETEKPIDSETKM
Protocol: as §1, §2, §3, §4, §5, §6

SLC1A4 = test system: SLC1A4; design: method as in PMID 14502423; conditions: cited from earlier work

O=C(O)[C@@H]1C[C@@H](O)CN1 [4-HP, trans-4-hydroxy-L-proline, reference compound]
Km (SLC38A2 (ATA2)): 3.1 mM | IC50 (SLC1A5): 108 µM | TEVC current response or block (SLC1A1 (EAAT3)): No TEVC current response or block was observed | TEVC current response or block (SLC1A3 (EAAT1)): No TEVC current response or block was observed | increase in affinity for SLC1A4 over L-proline (SLC1A4): approximately 20 fold
